# According to patent US12171230B2, “Herbicidal compositions” (Bayer Aktiengesellschaft, priority 2018, dated 2024):
# Key:
# Format in all cases: in vivo
# Phalaris minor = assay: Post-emergence herbicidal action against Phalaris minor
# How it was run: (§1)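 Colby-derived expected values (E^C) and the summed effects of the separate applications (E^A) accompany each rating. Active substance was dosed in grams per hectare on a 100% active-compound basis, with the rating period given as DAT.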
# Viola tricolor = assay: Post-emergence herbicidal action against Viola tricolor
# How it was run: as §1
# Matricaria inodora = assay: Post-emergence herbicidal action against Matricaria inodora
# Polygonum convolvulus = assay: Post-emergence herbicidal action against Polygonum convolvulus
# Description: The following abbreviations are used in the description and the tables that follow: • g of a.i./ha=grams of active substance (active ingredient) (=100% active compound) per hectare; • The sum total of the effects of the individual applications is reported under E^A; • expected values according to Colby are each reported under E^C.
# The rating period is reported in days after application (DAT).
# Sorghum halepense = assay: Post-emergence herbicidal action against Sorghum halepense
# How it was run: (§2)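 Seeds or rhizome pieces were grown in sandy loam in pots in a greenhouse, and plants were sprayed at the three-leaf stage, three weeks after sowing. Spray powders or emulsion concentrates were applied in various dosages at 300 to 800 l/ha water. Efficacy was scored visually after 3 to 4 weeks against untreated controls.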
# Amaranthus palmeri = assay: Post-emergence herbicidal action against Amaranthus palmeri; conditions: 21 DAT; 30 g of a.i./ha
# How it was run: as §2
# Panicum maximum = assay: Post-emergence herbicidal action against Panicum maximum; conditions: g of a.i./ha: 200, 100, 100 + 200
# Experimental: When the observed efficacies exceed the formal sum total of the values of the tests with individual applications, they also exceed the expected value according to Colby, which is calculated using the formula below and is likewise regarded as an indication of synergism (cf. S. R. Colby; in Weeds 15 (1967) p. 20 to 22): E^C=A+B−([…])
# Here: • A=efficacy of the active compound (A) in % at an application rate of a g a.i./ha; • B=efficacy of the active compound (B) in % at an application rate of b g a.i./ha; • E^C=expected value of the effect of the combination (A)+(B) in % at the combined application rate a+b g a.i./ha.
# Seeds or rhizome pieces of mono- and dicotyledonous weeds are placed in sandy loam in pots, covered with soil and grown in a greenhouse under good growth conditions (temperature, air humidity, water supply). Three weeks after sowing, the test plants were treated at the three-leaf stage with the compositions according to the invention. The compositions according to the invention formulated as spray powders or as emulsion concentrates were sprayed onto the green plant parts in various dosages with an application rate of 300 to 800 l/ha of water (equivalent). After the test plants have been left to stand in the greenhouse under optimal growth conditions for about 3 to 4 weeks, the action of the preparations is scored visually in comparison to untreated controls. The compositions according to the invention also have good post-emergence herbicidal activity against a broad spectrum of economically important gramineous and broadleaf weeds.
structure (smiles),measurement,setting,value
O=C(Nc1ccc(F)cc1F)c1cccnc1Oc1cccc(C(F)(F)F)c1 [(B2.18) Diflufenican],Herbicidal action 28 DAT against Phalaris minor,Phalaris minor; 30 g of a.i./ha,0%
same,Herbicidal action 28 DAT against Phalaris minor,Phalaris minor; 90 g of a.i./ha,0%
same,Herbicidal action 28 DAT against Phalaris minor,Phalaris minor; 270 g of a.i./ha,5%
same,Herbicidal action 28 DAT against Phalaris minor,"Phalaris minor; (Z119) post-emergence, g of a.i./ha: 16, 4, 270, 90, 30, 16 + 270, 16 + 90, 16 + 30, 4 + 270, 4 + 30, 90 g of a.i./ha",0%
same,Herbicidal action 28 DAT against Phalaris minor,"Phalaris minor; (Z119) post-emergence, g of a.i./ha: 16, 4, 270, 90, 30, 16 + 270, 16 + 90, 16 + 30, 4 + 270, 4 + 30, 270 g of a.i./ha",5%
same,Herbicidal action 14 DAT against Phalaris minor,"Phalaris minor; (Z119) post-emergence, g of a.i./ha: 16, 4, 270, 90, 270, 16 + 270, 16 + 90, 4 + 270",5%
same,Herbicidal action 28 DAT against Viola tricolor,"Viola tricolor; (Z61) post-emergence, g of a.i./ha: 16, 1, 30, 16 + 30, 1 + 30",40%
same,Herbicidal action 14 DAT against Viola tricolor,"Viola tricolor; (Z119) post-emergence, g of a.i./ha: 16, 270, 16 + 270",40%
same,Herbicidal action 14 DAT against Matricaria inodora,Matricaria inodora; 90 g of a.i./ha,50%
same,Herbicidal action 28 DAT against Matricaria inodora,"Matricaria inodora; (Z61) post-emergence, g of a.i./ha: 4, 1, 30, 4 + 30, 1 + 30",0%
same,Herbicidal action 28 DAT against Matricaria inodora,"Matricaria inodora; (Z119) post-emergence, g of a.i./ha by row: 16, 4, 270, 90, 16 + 270, 4 + 90",50%
same,Herbicidal action 21 DAT against Polygonum convolvulus,"Polygonum convolvulus; g of a.i./ha: 90, 30, 45, 45 + 90, 45 + 30, 30 g of a.i./ha",10%
same,Herbicidal action 21 DAT against Polygonum convolvulus,"Polygonum convolvulus; g of a.i./ha: 90, 30, 45, 45 + 90, 45 + 30, 90 g of a.i./ha",20%
same,Herbicidal action against Sorghum halepense,"Sorghum halepense; 21 DAT, 30 g of a.i./ha",10%
same,Herbicidal action 21 DAT against Sorghum halepense,"Sorghum halepense; (Z3) post-emergence, g of a.i./ha: 90, 30, 15, 5, 15 + 90, 5 + 90, 15 + 30, 5 + 30",10%
same,Herbicidal action against Amaranthus palmeri (res.),Amaranthus palmeri,40%
same,Herbicidal action 28 DAT against Panicum maximum,Panicum maximum,0%
